From US6683166B2, “Modified internucleoside linkages (ii)” (ISIS Pharmaceuticals, Inc., priority 1992, dated 2004)

Experiments:
Type in all cases: binding
[1] = test system: Single Stranded Target (DNA); assay: Thermal denaturation Tm, DNA-duplex
Experimental: (§1) RNA and DNA duplex and DNA-triplex experiments utilizing certain desirable modified internucleoside linkages of this invention were conducted to determine those linkages' effect on the Tm values of the resulting oligonucleotides.
(§2) These experiments were carried out in a buffered solution (140 mM KCl, 5 mM Na2HPO4, and 1 mM MgCl2) at pH=6.6 (except for the 2′-5′ carbamate which was buffered at pH=7.0) according to the following protocol: 0.15 ODs of the target RNA/DNA was combined with 0.1 OD of the oligomer being assayed in a sterile eppendorf tube and dried. To this mixture was added 300 λ of Tm buffer and the solution was stirred. Tm values were then determined by a first derivative plot of absorbance versus temperature. Thermal denaturation analysis was carried out-with a heating rate of 0.25° C./min and absorbance was monitored at 260 nm.
(§3) The test oligomers that were synthesized for analysis were of the following sequence:
(§4) 5′-TC^mTC^mTC^mTC^mTC^mT^TT^TT-3′
(§5) where T=thymidine, C^m=5-methyl-2′-deoxycytidine, and T^T=a thymidine-thymidine dimer with an experimental linkage of the structure detailed in the table below. All other linkages were phosphodiester.

[2] = test system: Single Stranded Target (RNA); assay: Thermal denaturation Tm, DNA-RNA-duplex
Experimental: as §1, §2, §3, §4, §5

[3] = test system: Target Duplex Sequence (DNA) 5′ AGAGAGAGAGAAAAA 3′; assay: Thermal denaturation Tm, DNA-Triplex
Experimental: as §1, §2, §3, §4, §5

[4] = Tm change per substituted linkage vs control of the same group

## 5′-2′ thioformacetal: Test oligomer 5′-TCmTCmTCmTCmTCmT^TT^TT-3′, the two T^T dimers having a 5′-2′ thioformacetal linkage; other linkages phosphodiester
[1]; 140 mM KCl, 5 mM Na2HPO4, 1 mM MgCl2, pH 6.6 (2′-5′ carbamate buffered at pH 7.0), first derivative of A260 vs temperature
  DNA-duplex Tm: 53.0
[1]; [4]
  DNA-duplex ° C./subst: +1.8 ° C./subst
[2]; 140 mM KCl, 5 mM Na2HPO4, 1 mM MgCl2, pH 6.6 (2′-5′ carbamate buffered at pH 7.0)
  DNA-RNA-duplex Tm: 58.5
[2]; [4]
  DNA-RNA-duplex ° C./subst: −1.5 ° C./subst
[3]; 140 mM KCl, 5 mM Na2HPO4, 1 mM MgCl2, pH 6.6
  DNA-Triplex Tm: 39.0
[3]; pH 6.6, Tm change per substituted linkage vs control
  DNA-Triplex ° C./subst: 0 ° C./subst
